Experiment: Degradation of Compound A by hydrolysis
Assay type: physicochemical
Conditions: water
Description: Also provided herein are anhydrous pharmaceutical compositions and dosage forms including an active ingredient, since water can facilitate the degradation of some compounds. For example, the addition of water (e.g., 5 percent) is widely accepted in the pharmaceutical arts as a means of simulating shelf-life, i.e., long-term storage in order to determine characteristics such as shelf-life or the stability of formulations over time. See, e.g., Jens T. Carstensen, Drug Stability: Principles & Practice, 2d. Ed., Marcel Dekker, NY, N.Y., 1995, pp. 379-80. In effect, water and heat accelerate decomposition. Thus, the effect of water on a formulation can be of great significance since moisture and/or humidity are commonly encountered during manufacture, handling, packaging, storage, shipment, and use of formulations.

Q: Which degradation by hydrolysis does the source give for `Cc1nc2cccc(N)c2c(=O)n1C1CCC(=O)NC1=O` (stereo not shown) [Compound A, 3-(5-amino-2-methyl-4-oxo-4H-quinazolin-3-yl)-piperidine-2,6-dione] here?
A: easily degraded by hydrolysis
